From patent US12472206B2, “Pharmaceutical composition containing cerium compound as active ingredient” (priority 2020, dated 2025)
“Also recorded” adds a separate entry of the source.

Experiments:
[1] = tested on: adenine nephropathy model rats; assay: Animal experiment (2) (Example 7): adenine nephropathy model rats fed with cerium-containing feed, blood analysis; type: in vivo
Description: Adenine nephropathy model rats were fed with a dispersion (cerium oxide dispersion) that contains cerium(III) ion as a cerium compound containing trivalent cerium, and cerium oxide.
• Rat: Slc:Wistar rat (male) delivered at 12 weeks of age (Japan SLC, Inc.) • Powder feed: AIN-93G powder feed (Funabashi Farm Co., Ltd.) • Feed for laboratory animal: Labo MR Stock (Nosan Corporation) • Adenine: (Tokyo Chemical Industry Co., Ltd.) • Cerium oxide dispersion: Cerium oxide dispersion prepared in [Preparation of Cerium Oxide Dispersion] (aqueous dispersion of cerium oxide with 10.0% by mass cerium oxide, mole ratio of cerium oxide:cerium(III)=9:1 • Cerium(III) chloride: cerium(III) chloride heptahydrate (Nikki Corporation) • Water or hot water: water passed through a water purifier, and boiled in a pot • Mixer for feed preparation: Compact Kitchen Machine MUM4415JP (Bosch GmbH) • Manual sausage maker: sausage machine (COM4SPORT) • Wing blood collection needle for animal experiment: CL-4597 (CLEA Japan, Inc.) [Preparation of Cerium Oxide Dispersion]
A special feed was prepared by modifying step (ii) for preparing the feed for normal group, as described below. […] Approximately 100 mL of hot water was then added evenly.
(§1) A special feed was prepared by modifying steps (i) and (ii) for (2) Feed for Adenine Group, as described below. (i) (Ade+Dispersion (A)): Weighed was 246.1 g of the powder feed, which was then stirred with a kitchen machine. (ii) (Ade+Dispersion (A)): While keeping the feed under stirring, 0.625 g of adenine was added in small portions, the content was stirred with the kitchen machine for 3 minutes, the feed adhered on the wall surface was scraped off, and the content was stirred again for 3 minutes. Next, while keeping the feed under stirring, 32.7 g of cerium oxide dispersion was added in small portions, the content was stirred with the kitchen machine for 3 minutes, the feed adhered on the wall surface was scraped off, and the content was stirred again for 3 minutes. Approximately 70 mL of hot water was then added evenly.
as §1, with “(ii)” for “A special feed was prepared by modifying steps (i) and (ii) for (2) Feed for Adenine Group, as described below. (i) (Ade+Dispersion (A)): Weighed was 246.1 g of the powder feed, which was then stirred with a kitchen machine. (ii)”, “(B)):” for “(A)):”, “98.2” for “32.7”, “12” for “70”
(1) Rats were weighed, and classified into four groups.
FIGS. 12 to 15 illustrate graphs plotting on the ordinates test values of serum creatinine (CRE), blood urea nitrogen (BUN), serum phosphorus (IP), or alanine aminotransferase (ALT) of the blood samples collected at the time of the dissection, and plotting on the abscissae total molar amount of cerium per 100 g of feed.
The effect of cerium(III) chloride was examined with use of the following feeds (4-1) to (4-3), in place of the (3-1) Feed for adenine+cerium oxide dispersion (A) group, and the (3-2) Feed for adenine+cerium oxide dispersion (B) group described in Preparation of Feeds according to Example 7-1. […]

[2] = Phosphorus adsorption experiment, Example 2-3 (particle 1 vs lanthanum carbonate); type: binding; conditions: one hour
Procedure: Three mmol/L aqueous phosphoric acid solutions with pH 2.5 and pH 7.0 were prepared. The pH was adjusted with Bis-Tris HCl buffer solution and glycine-HCl buffer solution (phosphoric acid, sodium chloride, and glycine from FUJIFILM Wako Pure Chemical Corporation; Bis-Tris from Dojindo Laboratories).
A freely selectable amount of particle 1 was added to each of the aqueous solutions.
Each of these dispersions was kept stirred at 38° C. for one hour in a thermostatic chamber.
Also, a freely selectable amount of a commercially available lanthanum carbonate reagent (from Nikki Corporation) was added in the same way, and each dispersion was kept stirred at 38° C. for one hour in a thermostatic chamber.
Each solution was then centrifuged (10,000×g, 5 min) for solid-liquid separation, and the supernatant was collected.
Phosphoric acid remained in the collected supernatant was evaluated by colorimetry, with use of a commercially available phosphoric acid detection reagent (Trade name: PiBlue Phosphate Assay Kit; POPB-500) that contains molybdenum blue and malachite green.
The reciprocal of the mass of the particle required to entirely adsorb 3 mmol of phosphoric acid was defined as adsorptivity to phosphorus, and was illustrated in FIG. 6.

[3] = tested on: 5/6 nephrectomized model rats; conditions: 5/6 nephrectomized rats, in feed
Procedure: Slc:Wistar rat, 5/6 nephrectomized
(1) The 5/6 nephrectomized model rats were weighed, and classified into three groups.
(2) Each group was acclimatized with MR stock feed, under ad libitum feeding and ad libitum water drinking. The feeding cage was conditioned at room temperature 22±2° C., under illumination 12 hours a day.
(3) The animals were then bred with the prepared special feed under ad libitum feeding and ad libitum water drinking. The feeding cage was conditioned similarly to the acclimatization period, at room temperature 22±2° C., under illumination 12 hours a day.
(4) On Days 0, 7, 14, 21, and 28, rats were bred in metabolic cages for 24 hours. The animals were fed with Labo MR stock on Day 0, and with the special feed on days thereafter, during which the amounts of feed consumption, water consumption, urine and feces were measured, and the urine and feces were sampled.
(5) The animals were taken out of the metabolic cage and weighed, followed by blood collection with a winged needle. Approximately 400 μL of blood was collected, incubated at room temperature for one hour, and then centrifuged (1,700×g, 20 min) to obtain serum.
(6) On the final Day 28, the animals were fasted throughout the day, and then dissected. […] The collected blood was centrifuged (1,700×g, 20 min) to obtain serum. Liver, kidney, spleen, small intestine, and stomach of the rats that were exsanguinated to death were sampled. The small intestine and stomach were dissected, removed contents, and rinsed twice with PBS. The above sequence of procedures was repeated three times to assign six animals to each group. […]
The above four items were measured with use of Hitachi 7180 automatic analyzer.
ALT was measured only for blood samples collected on the last day.

[4] = adenine nephropathy rats, in feed, blood collected at dissection

Structure (SMILES)	effects on CRE, BUN and IP relative to the cerium oxide dispersion, per molar amount of cerium ([1]; adenine group normalized at 100) [times]	alanine aminotransferase (ALT) [1, 4]	blood urea nitrogen (BUN) [1, 4]	serum creatinine (CRE) [1, 4]	serum phosphorus (IP) [1, 4]	mass of the particle required to entirely adsorb 3 mmol of phosphoric acid ([2]; pH 2.5, 38° C.) [g]	mass of the particle required to entirely adsorb 3 mmol of phosphoric acid ([2]; pH 7.0, 38° C.) [g]	blood urea nitrogen (BUN) ([3]; Days 0-28)	serum creatinine (CRE) ([3]; Days 0-28)	serum ALT (GPT) level ([3]; blood of the last day)
O.O.O.O.O.O.O.[Ce+3].[Cl-].[Cl-].[Cl-] [cerium chloride, cerium(III) chloride heptahydrate]	4 to 9	equivalent to that in the normal group; also recorded: equivalent to the level of the normal group	declines depending on the cerium chloride content (mol) in 100 g of feed; also recorded: decrease as the cerium chloride content in the feed increased	declines depending on the cerium chloride content (mol) in 100 g of feed; also recorded: decrease as the cerium chloride content in the feed increased	declines depending on the cerium chloride content (mol) in 100 g of feed; also recorded: decrease as the cerium chloride content in the feed increased	–	–	–	–	–
O=C([O-])[O-].O=C([O-])[O-].O=C([O-])[O-].[La+3].[La+3] [lanthanum carbonate]	–	–	–	–	–	1.15	5.95	slightly increase as compared with the cerium oxide-added groups	slightly increase as compared with the cerium oxide-added groups	distinctively increased as compared with those of the non-added group
